Reference: PubChem BioAssay AID624482 (The Scripps Research Institute Molecular Screening Center, 2012)
Active and inactive are the calls of the source.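 The calls were made as follows: active = inhibition of the enzyme prolyl endopeptidase above 20%; inactive = inhibition at or below 20%.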

What follows are compounds tested against Prolyl endopeptidase (Mus musculus) (UniProt Q9QUR6) (assay: prolyl endopeptidase enzyme blockade – biochemical, fluorescence, mouse, assay provider data, selectivity assay for PREPL inhibitor project (AID 624482)). Conditions: recombinant PEP, Z-Gly-Pro-AMC fluorescence; at 20 µM; hits give high values.
Sequence of Prolyl endopeptidase (Mus musculus) (Q9QUR6 whole entry, looked up): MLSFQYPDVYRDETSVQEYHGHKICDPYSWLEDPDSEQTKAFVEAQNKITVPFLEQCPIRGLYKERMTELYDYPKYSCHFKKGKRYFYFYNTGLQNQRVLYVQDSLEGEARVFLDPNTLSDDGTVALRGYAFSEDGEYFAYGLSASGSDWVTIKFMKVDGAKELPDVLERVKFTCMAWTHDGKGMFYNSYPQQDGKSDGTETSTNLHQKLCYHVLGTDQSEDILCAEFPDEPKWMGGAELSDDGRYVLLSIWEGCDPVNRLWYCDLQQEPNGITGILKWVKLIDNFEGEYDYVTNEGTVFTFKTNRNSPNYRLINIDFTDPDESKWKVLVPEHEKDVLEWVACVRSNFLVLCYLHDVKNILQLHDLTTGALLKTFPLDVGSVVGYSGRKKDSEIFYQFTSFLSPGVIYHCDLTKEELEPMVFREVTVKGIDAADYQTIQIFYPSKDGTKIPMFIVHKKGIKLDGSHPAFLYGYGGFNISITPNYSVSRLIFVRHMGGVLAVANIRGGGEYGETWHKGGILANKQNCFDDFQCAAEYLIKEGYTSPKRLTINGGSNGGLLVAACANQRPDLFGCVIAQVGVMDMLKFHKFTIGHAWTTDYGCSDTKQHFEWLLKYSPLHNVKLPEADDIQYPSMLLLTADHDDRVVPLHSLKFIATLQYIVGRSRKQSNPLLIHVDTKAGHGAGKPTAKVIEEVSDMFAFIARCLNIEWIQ
Work on `COc1cc2nc(Nc3ccc(C)c(C)c3)nc(N)c2cc1OC` yielded an inhibition of 46%.
With `O=C(Nc1ccc2c(c1)OCCO2)c1cccc2nc3ccccc3nc12` the inhibition was -26% (inactive).
For `N#Cc1c2c(c(-c3ccccc3)[nH]c1=O)CCCC2`, the inhibition was -13% (inactive).
For `CCOc1ccc(CCNC(=O)c2ccc3c(=O)[nH]c4c(C(=O)NC(C)C)sc(=S)n4c3c2)cc1`, the inhibition was -29% (inactive).
`CC(C)Cc1[nH]c(=O)c(C#N)c2c1CCC2` was tested, and the inhibition was -17% (inactive).
